Patent publication US20220323406A1, “METHODS AND COMPOSITIONS FOR DIFFERENTIATING STEM CELLS” (Massachusetts Institute of Technology, priority 2019, published 2022)

How the values were obtained:
[1] = test system: ENR+CD organoids (ISC to Paneth cell differentiation); assay: Primary screen: basal (non-stimulated) lysozyme secretion LYZ.NS, 2.5-D 384-well ENR+CD organoid differentiation; type: cell-based, mouse; conditions: primary screen; for Z.LYZ.NS: standard z score
Source text: (§1) High-throughput screening.

[2] = test system: ENR+CD organoids (ISC to Paneth cell differentiation); assay: Primary screen: CCh-stimulated lysozyme secretion LYZ.S, 2.5-D 384-well ENR+CD organoid differentiation; type: cell-based, mouse; conditions: primary screen
Source text: as §1

[3] = test system: ENR+CD organoids; assay: Primary screen: ATP (CellTiter-Glo 3D, CTG) cell number/viability, 2.5-D 384-well ENR+CD organoids; conditions: primary screen;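 further: compounds given at plating and again on day 3 over a 6-day differentiation from ENR+CV stem-cell-enriched precursors, ATP measured on day 6, plate median as control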
[4] = 1st dose row of the treatment (0.08 uM by row order; dose not reprinted)
[5] = 2nd dose row of the treatment (0.40 uM by row order; dose not reprinted)
[6] = 3rd dose row of the treatment (2.00 uM by row order; dose not reprinted)
[7] = 4th dose row of the treatment (10.00 uM by row order; dose not reprinted)
[8] = dose 0.08 uM, FC relative to plate median
[9] = dose 0.40 uM, FC relative to plate median
[10] = dose 2.00 uM, FC relative to plate median
[11] = dose 10.00 uM, FC relative to plate median

SMILES: CC1(C)CCC(CN2CCN(c3ccc(C(=O)NS(=O)(=O)c4ccc(NCC5CCOCC5)c([N+](=O)[O-])c4)c(Oc4cnc5[nH]ccc5c4)c3)CC2)=C(c2ccc(Cl)cc2)C1 [ABT-199 (GDC-0199)]
- SSMD.LYZ.NS_Rep (strictly standardized mean difference) [1, 4]: −0.009
- SSMD.LYZ.NS_Rep (strictly standardized mean difference) [1, 5]: −0.192
- SSMD.LYZ.NS_Rep (strictly standardized mean difference) [1, 6]: −0.116
- SSMD.LYZ.NS_Rep (strictly standardized mean difference) [1, 7]: −0.810
- Dose.FC.LYZ.NS ([1]; dose 0.08 uM): −0.002 log2 fold change
- Z.LYZ.NS (standard z score) ([1]; dose 0.08 uM): −0.013
- Dose.FC.LYZ.NS ([1]; dose 0.40 uM): −0.029 log2 fold change
- Z.LYZ.NS (standard z score) ([1]; dose 0.40 uM): −0.251
- Dose.FC.LYZ.NS ([1]; dose 2.00 uM): −0.016 log2 fold change
- Z.LYZ.NS (standard z score) ([1]; dose 2.00 uM): −0.136
- Dose.FC.LYZ.NS ([1]; dose 10.00 uM): −0.169 log2 fold change
- Z.LYZ.NS (standard z score) ([1]; dose 10.00 uM): −1.471
- SSMD.LYZ.S_Rep (strictly standardized mean difference) [2, 4]: −0.260
- Z.LYZ.S (standard z score) [2, 4]: −0.285
- SSMD.LYZ.S_Rep (strictly standardized mean difference) [2, 5]: 0.443
- Z.LYZ.S (standard z score) [2, 5]: 0.494
- SSMD.LYZ.S_Rep (strictly standardized mean difference) [2, 6]: −0.368
- Z.LYZ.S (standard z score) [2, 6]: −0.404
- SSMD.LYZ.S_Rep (strictly standardized mean difference) [2, 7]: −1.131
- Z.LYZ.S (standard z score) [2, 7]: −1.890
- Dose.FC.LYZ.S ([2]; dose 0.08 uM): −0.044 log2 fold change
- Dose.FC.LYZ.S ([2]; dose 0.40 uM): 0.076 log2 fold change
- Dose.FC.LYZ.S ([2]; dose 2.00 uM): −0.063 log2 fold change
- Dose.FC.LYZ.S ([2]; dose 10.00 uM): −0.292 log2 fold change
- SSMD.CTG.Rep (strictly standardized mean difference) [3, 4]: 0.051
- SSMD.CTG.Rep (strictly standardized mean difference) [3, 5]: 0.111
- SSMD.CTG.Rep (strictly standardized mean difference) [3, 6]: −0.377
- SSMD.CTG.Rep (strictly standardized mean difference) [3, 7]: −1.402
- Dose.FC.CTG ([3]; dose 0.08 uM): 0.019 log2 fold change
- Z.CTG (standard z score) ([3]; dose 0.08 uM): 0.045
- Dose.FC.CTG ([3]; dose 0.40 uM): 0.038 log2 fold change
- Z.CTG (standard z score) ([3]; dose 0.40 uM): 0.090
- Dose.FC.CTG ([3]; dose 2.00 uM): −0.278 log2 fold change
- Z.CTG (standard z score) ([3]; dose 2.00 uM): −0.665
- Dose.FC.CTG ([3]; dose 10.00 uM): −0.519 log2 fold change
- Z.CTG (standard z score) ([3]; dose 10.00 uM): −1.240

SMILES: O=S(=O)(c1ccccc1)N(CC(F)(F)F)c1ccc(C(O)(C(F)(F)F)C(F)(F)F)cc1 [T0901317]
- Dose.FC.LYZ.NS [1, 8]: 0.086 log2 fold change
- Z.LYZ.NS ([1]; dose 0.08 uM): 0.748
- Dose.FC.LYZ.NS [1, 9]: 0.042 log2 fold change
- Z.LYZ.NS ([1]; dose 0.40 uM): 0.369
- Dose.FC.LYZ.NS [1, 10]: 0.074 log2 fold change
- Z.LYZ.NS ([1]; dose 2.00 uM): 0.644
- Dose.FC.LYZ.NS [1, 11]: −0.015 log2 fold change
- Z.LYZ.NS ([1]; dose 10.00 uM): −0.130
- Dose.FC.LYZ.S [2, 8]: 0.111 log2 fold change
- Dose.FC.LYZ.S [2, 9]: 0.077 log2 fold change
- Dose.FC.LYZ.S [2, 10]: 0.070 log2 fold change
- Dose.FC.LYZ.S [2, 11]: −0.034 log2 fold change
- Dose.FC.CTG [3, 8]: 0.047 log2 fold change
- Dose.FC.CTG [3, 9]: 0.178 log2 fold change
- Dose.FC.CTG [3, 10]: 0.096 log2 fold change
- Dose.FC.CTG [3, 11]: 0.114 log2 fold change

SMILES: CC(C)c1noc(N2CCC(COc3ccc(-c4ccc(S(C)(=O)=O)cc4)nc3)CC2)n1 [GSK1292263]
- Dose.FC.LYZ.NS (log2 fold change) ([1]; dose 0.08 uM): 0.078
- Z.LYZ.NS (standard z score) ([1]; dose 0.08 uM): 0.681
- Dose.FC.LYZ.NS (log2 fold change) ([1]; dose 0.40 uM): 0.050
- Z.LYZ.NS (standard z score) ([1]; dose 0.40 uM): 0.434
- Dose.FC.LYZ.NS (log2 fold change) ([1]; dose 2.00 uM): 0.028
- Z.LYZ.NS (standard z score) ([1]; dose 2.00 uM): 0.240
- Dose.FC.LYZ.NS (log2 fold change) ([1]; dose 10.00 uM): 0.020
- Z.LYZ.NS (standard z score) ([1]; dose 10.00 uM): 0.173
- Dose.FC.LYZ.S (log2 fold change) ([2]; dose 0.08 uM): 0.111
- Dose.FC.LYZ.S (log2 fold change) ([2]; dose 0.40 uM): 0.101
- Dose.FC.LYZ.S (log2 fold change) ([2]; dose 2.00 uM): 0.060
- Dose.FC.LYZ.S (log2 fold change) ([2]; dose 10.00 uM): 0.027
- Dose.FC.CTG (log2 fold change) ([3]; dose 0.08 uM): 0.161
- Z.CTG (standard z score) ([3]; dose 0.08 uM): 0.384
- Dose.FC.CTG (log2 fold change) ([3]; dose 0.40 uM): 0.192
- Z.CTG (standard z score) ([3]; dose 0.40 uM): 0.458
- Dose.FC.CTG (log2 fold change) ([3]; dose 2.00 uM): 0.224
- Z.CTG (standard z score) ([3]; dose 2.00 uM): 0.535
- Dose.FC.CTG (log2 fold change) ([3]; dose 10.00 uM): 0.196
- Z.CTG (standard z score) ([3]; dose 10.00 uM): 0.468

SMILES: Cn1cc(/C=C2\C(=O)Nc3cccnc32)c2ccccc21 [GW441756]
- Dose.FC.LYZ.NS (log2 fold change) ([1]; dose 0.08 uM): 0.046
- Z.LYZ.NS (standard z score) ([1]; dose 0.08 uM): 0.399
- Dose.FC.LYZ.NS (log2 fold change) ([1]; dose 0.40 uM): 0.061
- Z.LYZ.NS (standard z score) ([1]; dose 0.40 uM): 0.529
- Dose.FC.LYZ.NS (log2 fold change) ([1]; dose 2.00 uM): 0.117
- Z.LYZ.NS (standard z score) ([1]; dose 2.00 uM): 1.023
- Dose.FC.LYZ.NS (log2 fold change) ([1]; dose 10.00 uM): 0.088
- Z.LYZ.NS (standard z score) ([1]; dose 10.00 uM): 0.763
- Dose.FC.LYZ.S (log2 fold change) ([2]; dose 0.08 uM): 0.075
- Dose.FC.LYZ.S (log2 fold change) ([2]; dose 0.40 uM): 0.196
- Dose.FC.LYZ.S (log2 fold change) ([2]; dose 2.00 uM): 0.125
- Dose.FC.LYZ.S (log2 fold change) ([2]; dose 10.00 uM): 0.071
- Dose.FC.CTG (log2 fold change) ([3]; dose 0.08 uM): 0.048
- Z.CTG (standard z score) ([3]; dose 0.08 uM): 0.114
- Dose.FC.CTG (log2 fold change) ([3]; dose 0.40 uM): −0.105
- Z.CTG (standard z score) ([3]; dose 0.40 uM): −0.252
- Dose.FC.CTG (log2 fold change) ([3]; dose 2.00 uM): 0.152
- Z.CTG (standard z score) ([3]; dose 2.00 uM): 0.364
- Dose.FC.CTG (log2 fold change) ([3]; dose 10.00 uM): −0.113
- Z.CTG (standard z score) ([3]; dose 10.00 uM): −0.270
